Laboratory results from ChEMBL document CHEMBL1139671, “Nuphar alkaloids with immediately apoptosis-inducing activity from Nuphar pumilum and their structural requirements for the activity” (2006).

Columns and labels:
Format in all cases: functional
[1] = system: B16-F10; assay: Cytotoxicity against B16F10 cells at 0.1 uM after 72 hrs; conditions: Mus musculus, B16-F10, 72 h
[2] = system: B16-F10; assay: Cytotoxicity against B16F10 cells at 1.0 uM after 72 hrs; conditions: Mus musculus, B16-F10, 72 h
[3] = system: B16-F10; assay: Cytotoxicity against B16F10 cells at 10 uM after 72 hrs; conditions: Mus musculus, B16-F10, 72 h
[4] = system: HT-1080; assay: Cytotoxicity against HT1080 cells at 10 uM after 72 hrs; conditions: Homo sapiens, HT-1080, 72 h
[5] = system: HT-1080; assay: Cytotoxicity against HT1080 cells at 0.1 uM after 72 hrs; conditions: Homo sapiens, HT-1080, 72 h
[6] = system: HT-1080; assay: Cytotoxicity against HT1080 cells at 1.0 uM after 72 hrs; conditions: Homo sapiens, HT-1080, 72 h
[7] = system: U-937; assay: Cytotoxicity against U937 cells at 1.0 uM after 72 hrs; conditions: Homo sapiens, U-937, 72 h
[8] = system: U-937; assay: Cytotoxicity against U937 cells at 10 uM after 72 hrs; conditions: Homo sapiens, U-937, 72 h
[9] = system: B16-F10; assay: Cytotoxicity against B16F10 cells at 0.1 uM after 48 hrs; conditions: Mus musculus, B16-F10, 48 h
[10] = system: B16-F10; assay: Cytotoxicity against B16F10 cells at 1.0 uM after 48 hrs; conditions: Mus musculus, B16-F10, 48 h
[11] = system: B16-F10; assay: Cytotoxicity against B16F10 cells at 10 uM after 48 hrs; conditions: Mus musculus, B16-F10, 48 h
[12] = system: HT-1080; assay: Cytotoxicity against HT1080 cells at 0.1 uM after 48 hrs; conditions: Homo sapiens, HT-1080, 48 h
[13] = system: HT-1080; assay: Cytotoxicity against HT1080 cells at 1.0 uM after 48 hrs; conditions: Homo sapiens, HT-1080, 48 h
[14] = system: HT-1080; assay: Cytotoxicity against HT1080 cells at 10 uM after 48 hrs; conditions: Homo sapiens, HT-1080, 48 h
[15] = system: U-937; assay: Cytotoxicity against U937 cells at 1.0 uM after 24 hrs; conditions: Homo sapiens, U-937, 24 h
[16] = system: U-937; assay: Cytotoxicity against U937 cells at 10 uM after 24 hrs; conditions: Homo sapiens, U-937, 24 h
[17] = system: U-937; assay: Cytotoxicity against U937 cells at 1.0 uM after 48 hrs; conditions: Homo sapiens, U-937, 48 h
[18] = system: U-937; assay: Cytotoxicity against U937 cells at 10 uM after 48 hrs; conditions: Homo sapiens, U-937, 48 h
[19] = system: HT-1080; assay: Cytotoxicity against HT1080 cells at 0.1 uM after 24 hrs; conditions: Homo sapiens, HT-1080, 24 h
[20] = system: HT-1080; assay: Cytotoxicity against HT1080 cells at 1.0 uM after 24 hrs; conditions: Homo sapiens, HT-1080, 24 h
[21] = system: HT-1080; assay: Cytotoxicity against HT1080 cells at 10 uM after 24 hrs; conditions: Homo sapiens, HT-1080, 24 h
[22] = system: U-937; assay: Cytotoxicity against U937 cells at 0.1 uM after 72 hrs; conditions: Homo sapiens, U-937, 72 h
[23] = system: U-937; assay: Cytotoxicity against U937 cells at 0.1 uM after 24 hrs; conditions: Homo sapiens, U-937, 24 h
[24] = system: U-937; assay: Cytotoxicity against U937 cells at 0.1 uM after 48 hrs; conditions: Homo sapiens, U-937, 48 h
[25] = system: B16-F10; assay: Cytotoxicity against B16F10 cells at 0.1 uM after 24 hrs; conditions: Mus musculus, B16-F10, 24 h
[26] = system: B16-F10; assay: Cytotoxicity against B16F10 cells at 1.0 uM after 24 hrs; conditions: Mus musculus, B16-F10, 24 h
[27] = system: B16-F10; assay: Cytotoxicity against B16F10 cells at 10 uM after 24 hrs; conditions: Mus musculus, B16-F10, 24 h
[28] = system: U-937; assay: Cytotoxicity against U937 cells at 0.03 uM after 72 hrs; conditions: Homo sapiens, U-937, 72 h
[29] = system: B16-F10; assay: Cytotoxicity against B16F10 cells at 0.03 uM after 24 hrs; conditions: Mus musculus, B16-F10, 24 h
[30] = system: B16-F10; assay: Cytotoxicity against B16F10 cells at 0.03 uM after 48 hrs; conditions: Mus musculus, B16-F10, 48 h
[31] = system: B16-F10; assay: Cytotoxicity against B16F10 cells at 0.03 uM after 72 hrs; conditions: Mus musculus, B16-F10, 72 h
[32] = system: HT-1080; assay: Cytotoxicity against HT1080 cells at 0.03 uM after 24 hrs; conditions: Homo sapiens, HT-1080, 24 h
[33] = system: HT-1080; assay: Cytotoxicity against HT1080 cells at 0.03 uM after 48 hrs; conditions: Homo sapiens, HT-1080, 48 h
[34] = system: HT-1080; assay: Cytotoxicity against HT1080 cells at 0.03 uM after 72 hrs; conditions: Homo sapiens, HT-1080, 72 h
[35] = system: U-937; assay: Cytotoxicity against U937 cells at 0.03 uM after 24 hrs; conditions: Homo sapiens, U-937, 24 h
[36] = system: U-937; assay: Cytotoxicity against U937 cells at 0.03 uM after 48 hrs; conditions: Homo sapiens, U-937, 48 h

C[C@@H]1CC[C@@H](c2ccoc2)N2C[C@](C)(O)CC[C@@H]12 [NUPHAROLUTINE]
inhibition at 0.1 µM [1]: -3.1% | inhibition at 1 µM [2]: -1.2% | inhibition at 10 µM [3]: -0.9% | inhibition at 10 µM [4]: -16.7% | inhibition at 0.1 µM [5]: -12.9% | inhibition at 1 µM [6]: -13.2% | inhibition at 1 µM [7]: 12.5% | inhibition at 10 µM [8]: 2.8%

C[C@@H]1CC[C@@H](c2ccoc2)N2C[C@@]3(CC[C@@H]12)CS[C@]1(CC[C@H]2[C@H](C)CC[C@@H](c4ccoc4)N2C1)C3 [THIONUPHLUTINE B]
inhibition at 0.1 µM [1]: 1.7% | inhibition at 1 µM [2]: -2.2% | inhibition at 10 µM [3]: 2.2% | inhibition at 10 µM [4]: -12% | inhibition at 0.1 µM [5]: -10.8% | inhibition at 1 µM [6]: 0.9% | inhibition at 1 µM [7]: 9.1% | inhibition at 10 µM [8]: 7.8%

C[C@@H]1CC[C@@H](c2ccoc2)N2C[C@]3(CC[C@@H]12)CS[C@]1(CC[C@H]2[C@H](C)CC[C@@H](c4ccoc4)N2C1)C3 [NEOTHIOBINUPHARIDINE]
inhibition at 0.1 µM [9]: 4.4% | inhibition at 1 µM [10]: -8.9% | inhibition at 10 µM [11]: 24.7% | inhibition at 0.1 µM [1]: 8.9% | inhibition at 1 µM [2]: 4% | inhibition at 10 µM [3]: 30.2% | inhibition at 10 µM [4]: 38% | inhibition at 0.1 µM [12]: -1% | inhibition at 1 µM [13]: -4.1% | inhibition at 10 µM [14]: 7.5% | inhibition at 0.1 µM [5]: -3.4% | inhibition at 1 µM [6]: -0.8% | inhibition at 1 µM [7]: -1.2% | inhibition at 10 µM [8]: 40.1% | inhibition at 1 µM [15]: 5.2% | inhibition at 10 µM [16]: 50.7% | inhibition at 1 µM [17]: 5.4% | inhibition at 10 µM [18]: 65.6%

C[C@@H]1CC[C@@H](c2ccoc2)N2C[C@@]3(CC[C@@H]12)CS[C@@]1(CC[C@H]2[C@H](C)CC[C@@H](c4ccoc4)N2C1)C3 [THIOBINUPHARIDINE]
inhibition at 0.1 µM [1]: 6.8% | inhibition at 1 µM [2]: 7.9% | inhibition at 10 µM [3]: 4.4% | inhibition at 10 µM [4]: -11.7% | inhibition at 0.1 µM [5]: 9.9% | inhibition at 1 µM [6]: 6.3% | inhibition at 1 µM [7]: 6.9% | inhibition at 10 µM [8]: 10.9%

CC[C@@]1(O)C(=O)OCc2c1cc1n(c2=O)Cc2cc3ccccc3nc2-1 [CAMPTOTHECIN]
inhibition at 0.1 µM [9]: 39.1% | inhibition at 1 µM [10]: 83.2% | inhibition at 10 µM [11]: 94.7% | inhibition at 0.1 µM [1]: 76.9% | inhibition at 1 µM [2]: 93.5% | inhibition at 10 µM [3]: 98.1% | inhibition at 0.1 µM [19]: -0.4% | inhibition at 10 µM [4]: 93.8% | inhibition at 1 µM [20]: 49.5% | inhibition at 10 µM [21]: 62% | inhibition at 0.1 µM [12]: -11.7% | inhibition at 1 µM [13]: 77% | inhibition at 10 µM [14]: 93.1% | inhibition at 0.1 µM [5]: 5.4% | inhibition at 1 µM [6]: 65.8% | inhibition at 0.1 µM [22]: 95.3% | inhibition at 1 µM [7]: 98.2% | inhibition at 10 µM [8]: 98% | inhibition at 0.1 µM [23]: 46% | inhibition at 1 µM [15]: 75.8% | inhibition at 10 µM [16]: 75% | inhibition at 0.1 µM [24]: 90.6% | inhibition at 1 µM [17]: 94.6% | inhibition at 10 µM [18]: 98.2% | inhibition at 0.1 µM [25]: 16.2% | inhibition at 1 µM [26]: 47.8% | inhibition at 10 µM [27]: 60.6% | inhibition at 0.03 µM [28]: 78.5% | inhibition at 0.03 µM [29]: -1.9% | inhibition at 0.03 µM [30]: 7.5% | inhibition at 0.03 µM [31]: 33.4% | inhibition at 0.03 µM [32]: -3.8% | inhibition at 0.03 µM [33]: -7.1% | inhibition at 0.03 µM [34]: -3.2% | inhibition at 0.03 µM [35]: 7.1% | inhibition at 0.03 µM [36]: 61.9%

C[C@@H]1CC[C@@H](c2ccoc2)N2C[C@@]3(CC[C@@H]12)CS[C@]1(CC[C@H]2[C@H](C)CC[C@@H](c4ccoc4)N2[C@@H]1O)C3 [6-HYDROXYTHIONUPHLUTINE B]
inhibition at 0.1 µM [9]: 0.3% | inhibition at 1 µM [10]: 65% | inhibition at 10 µM [11]: 98.2% | inhibition at 0.1 µM [1]: 0.9% | inhibition at 1 µM [2]: 69.3% | inhibition at 10 µM [3]: 99.1% | inhibition at 0.1 µM [19]: 6.3% | inhibition at 10 µM [4]: 98.7% | inhibition at 1 µM [20]: 42% | inhibition at 10 µM [21]: 95.9% | inhibition at 0.1 µM [12]: 8.6% | inhibition at 1 µM [13]: 53.3% | inhibition at 10 µM [14]: 98% | inhibition at 0.1 µM [5]: 1% | inhibition at 1 µM [6]: 63.5% | inhibition at 1 µM [7]: 85.3% | inhibition at 10 µM [8]: 94.1% | inhibition at 1 µM [15]: 74.6% | inhibition at 10 µM [16]: 80% | inhibition at 1 µM [17]: 89% | inhibition at 10 µM [18]: 91.3% | inhibition at 1 µM [26]: -22.9% | inhibition at 10 µM [27]: 91.5%

C[C@@H]1CC[C@H]2[C@H](C)CC[C@@H](c3ccoc3)N2C1 [(-)-7-EPI-DEOXYNUPHARIDINE]
inhibition at 0.1 µM [1]: -1.5% | inhibition at 1 µM [2]: -9.8% | inhibition at 10 µM [3]: -7.9% | inhibition at 10 µM [4]: -10.1% | inhibition at 1 µM [6]: -6.6% | inhibition at 1 µM [7]: 6.4% | inhibition at 10 µM [8]: 8%
